Laboratory results reported in EP1529533A1, “Use of GH secretagogues in hypoxic-ischemic brain injury” (Sahltech I Göteborg AB, priority 2003, dated 2005).
Where a SMILES comes first, the peptide text is derived from it. [ ]: non-standard residue; d: D form. dTrp(2-Me) = Cc1[nH]c2ccccc2c1C[C@@H](N)C(=O)O

Experiment: Body temperature, mortality and body weight in the hypoxia-ischemia study
Assay type: in vivo, rats
Details: between the two groups (hexarelin vs. vehicle); data not shown
Excerpt: In a neonatal model that has previously been described (Rice J. E., V. R. C. Brierley, Ann. Neurol. 9 (1981), 1126-35; Hagberg H. et al., Acta Paedeatr. Suppl 442 (1997), 85-88). Seven-day-old out bred Wistar Fue rats were anesthetised with enflurane (3,5% for induction and 1,5% for maintenance) in a mixture of nitrous oxide and oxygen on a snout mask. The left common carotid artery was cut between two prolene sutures (9-0). After anesthesia and surgery the animals were returned to there dams and allowed to recover for 60 minutes. They were thereafter exposed to 60 minutes of hypoxia in a humidified chamber at 36°C with 7.7±0.01% oxygen in nitrogen. The pups were returned to and kept with their dams until they were killed at different time points after the insult Animals were either perfused intracardially with saline and 5% buffered formaldehyde (Histofix; Histolab, Göteborg, Sweden) for preparation of paraffin sections or fresh tissue were immediately frozen in isopenthane on dry ice for preparation of protein homogenates. The animal ethics committee in Gothenburg approved the animal studies.
Animals received daily intracerebral injections of 5 µl solution containing either 5µg hexarelin or vehicle (NaCl 0.9 mg/ml). Injections were headed for the left ventricular at 1.5 mm lateral to the Sagittal suture, 5.7 mm rostral to lambda and 2.8 mm deep to the skull surface with a special made needle of 27 gauge. Injection velocity of 1.5 µl/min with a Hamilton syringe connected to a MCA pump.
Brain injury was evaluated and observer blinded between the study groups using a neuropathological scoring system where injury in cortex was graded from 0-4 with 0 being no observable injury and 4 being confluent infarction encompassing most of the hemisphere. The damage in the hippocampus, thalamus and striatum was assessed regarding both hypothrophy (shrinkage of cells) 0-3 and observable cell injury/infarction 0-3, resulting in a scoring for each region 0-6. The total score 0-22 was the sum score for all the four regions.

Cc1[nH]c2ccccc2c1C[C@@H](NC(=O)[C@@H](N)Cc1cnc[nH]1)C(=O)N[C@@H](C)C(=O)N[C@@H](Cc1c[nH]c2ccccc12)C(=O)N[C@H](Cc1ccccc1)C(=O)N[C@@H](CCCCN)C(N)=O [Hexarelin] (H-H[dTrp(2-Me)]AW[dF]K-NH2)
no differences: body temperature | body weight | mortality
